From a melting point compilation (Tetko et al.; mined from patent text by program, amines drawn as free bases though some values may be those of a salt)

Row | Structure (SMILES) | melting point [°C]
1 | O=C1CCCN(C(=O)c2ccc([N+](=O)[O-])cc2Cl)c2ccccc21 | 140 to 143
2 | CC(=O)NN1CC(C)=NNC1=O | 197 to 199
3 | CN(CCN=C(NC#N)NCCSCc1csc(NC(=N)N)n1)CCC(c1ccccc1)c1ccccn1 (configuration not stated) | 115 to 116
4 | O=C(c1ccc(N2CCOCC2)cc1O)C(F)(F)F | 81 to 82
5 | COC1(OC)C2(Cl)C(Cl)=C(Cl)C1(Cl)C1OC(=O)OC12 (configuration not stated) | 160 to 162
6 | O=c1[nH]nc(Cl)cc1Br | 205 to 206
7 | O=C(Nc1ccc(-n2nc(C(F)(F)F)cc2C2CC2)cc1)c1c(Cl)cncc1Cl | 182 to 184
8 | CC(C)Nc1nc2cc(F)c(F)cc2[nH]1 | 188 to 189
9 | CCOc1sc(C(=O)O)c2c1-c1c(cnn1C)CC2 | 258 to 260
10 | Cn1cc(Cl)c2c1C(=O)Nc1ccccc1N2 | 172 to 175
11 | Oc1ccc2c(-c3cccc4c(O)cccc34)noc2c1 | 258 to 259
12 | Cc1cc(F)cc2[nH]c(=O)c(=O)[nH]c12 | > 300
13 | CC(C)NC(=O)NCC(=O)O | 178
14 | CCCCn1c(=O)n(C)c(=O)c2nc(-c3ccc(/C=C/C(=O)O)cc3)[nH]c21 | > 300
15 | CNC(=S)C1(c2cnc3ccccc3c2)CCCCC1=CC=O (configuration not stated) | 149 to 151
16 | CN1CCCC1=C(C#N)C(=O)c1ccc(Cl)cc1 | 115
17 | CN1CCC(N(C)C(=O)c2ccc3nonc3c2)CC1 | > 260
18 | C#CC1CCC2(CC1)SCC(C(C)(C)C)CS2 (configuration not stated) | 86 to 87
19 | N#Cc1ccc(-c2ccc(O)c(C=O)c2)cc1 | 144
20 | Cc1ccc(-c2ncc3c(n2)CCCCC3)nc1-c1ccccc1 | 151 to 154
21 | COC(=O)c1cc(-c2ccc3c(c2)c2cc(-c4ccc(Cl)cc4Cl)c(=O)n(C)c2n3C)[nH]n1 | 290 to 292
22 | N=C(N)c1ccc(-c2ccc(N3CCN(CCC(=O)O)C3=O)cc2)cc1 | > 200
23 | CS(=O)(=O)NC(=O)CCCCBr | 88 to 89

Row | Structure (SMILES) | melting point [°C]
24 | CC1=C(CC(=O)O)CN(C)N1 | 191 to 192
25 | O=C(Nc1ccc(C(F)(F)F)cc1)Nc1ccc(S(=O)(=O)Nc2ccc(Cl)cc2)cc1 | 252 to 257
26 | NCCC(C(N)=O)c1ccc(O)cc1 (configuration not stated) | 168 to 170
27 | CCOP(=O)(OCC)c1nc(NC(C)C)nc(NC(C)C)n1 | 91 to 94
28 | O=[N+]([O-])C(CO)(CO)c1cc(Br)cnc1Cl | 162 to 163
29 | COc1ccccc1C=CC=C(CC(N)C(=O)O)C(=O)O (configuration not stated) | 187 to 189
30 | O=C(c1ccnc(Cl)c1)N1CC(c2ccc(F)cc2)C2(CCN(C/C=C/c3ccc(Cl)cc3)CC2)C1 (configuration not stated) | 79 to 81
31 | NS(=O)(=O)c1cc2cc(C(=O)NCC(O)CO)sc2s1 (configuration not stated) | 117 to 118
32 | CN(C)CC1(C2(O)CCCCC2)Cc2cc3ccn(C)c3cc21 (configuration not stated) | 148 to 150
33 | CCC12CC3CC(CC(C)(C3)C1)C2 | < 80
34 | O=C(OC1CCCCC1)c1ccc(Cl)c([N+](=O)[O-])c1 | 57 to 58
35 | COC(=O)c1cc(=O)c2cc(C(F)(F)F)ccc2[nH]1 | 289 to 291
36 | CCNC(=O)c1ccccc1N(C)C(C)(C)C | 45 to 48
37 | NS(=O)(=O)c1ncccc1C(=O)OC1COC1 | 140 to 142
38 | N#Cc1ccc(C(=O)NC(=S)NC2CCCCC2)cc1 | 136 to 137
39 | Cn1c2nc3ccccc3nc2c2cccc(CO)c21 | 237 to 238
40 | CS(=O)(=O)NC(=O)N[C@H]1CCN(c2ccc3c(NC(=O)CC4CCCCC4)c(Cl)ccc3n2)C1 | 303 to 307
41 | Fc1cccc(C(c2ccc3nccnc3c2)n2ccnc2)c1 (configuration not stated) | 110
42 | Nc1nc2ccccc2n2cnc(-c3noc(C4CC4)n3)c12 | 305 to 310
43 | O=C(c1ccc(Cl)cc1)c1nccs1 | 101 to 103
44 | COC1(Cl)C=C(F)C=C(C=O)C1 (configuration not stated) | 59 to 61
45 | CCOC(=O)c1cnoc1-c1ccc(F)c(Br)c1 | 111 to 112
46 | CCNc1n[nH]c2ccc(C3C(C#N)=C(C)NC(C)=C3C#N)cc12 | 248

Row | Structure (SMILES) | melting point [°C]
47 | Cc1nc2sccn2c(=O)c1CCN1CCC(c2noc3cc(F)ccc23)CC1 | 165
48 | Cn1nc2c(-c3ccc(Cl)cc3Cl)cccc2c1C=CC#N | 258 to 259
49 | OCc1cc(I)ccc1O | 105 to 110
50 | CCC(=O)c1cc(Br)no1 | 35 to 37
51 | O=C1CCC(c2cc(F)c(F)c(F)c2)CC1 | 124
52 | COCC(=O)Nc1c(Cl)c(Cl)cc2nc(OC)c(OC)nc12 | 171 to 173
53 | COc1ccc(C(=O)Nc2c(Cl)cc(CO)cc2Cl)cc1OC1CCCC1 | 174 to 176
54 | O=c1[nH]c2cc(-n3cccc3)c([N+](=O)[O-])cc2n(C2CCCCC2)c1=O | 197
55 | CCSC1=C(c2ccc(O)cc2)C(=O)c2cc(O)cc(O)c21 | 75 to 77
56 | Cc1cc(-c2c(Cl)c(=O)c2=O)c2c(C)ccc(C(C)C)cc1-2 | 138 to 139
57 | O=C(c1cc2ccc(N3CCCCC3)cc2o1)C12CC3CC(CC(C3)C1)C2 | 150 to 152
58 | CCCCn1sc2nccn2c1=O | 142 to 143
59 | Cc1cc2nc(OC(C)C)nc(-c3cccc(C(F)(F)F)c3)c2s1 | 106
60 | CC(Nc1ccccc1)=C(C#N)C(=O)Nc1ccccc1Cl | 110 to 112
61 | CC(C)(C)OC(=O)N1CCC[C@@H]1C=C(Br)Br | 55 to 60
62 | COC(=O)C1=C(C)NC(C#N)=C(C(=O)OC)C1c1ccccc1[N+](=O)[O-] (configuration not stated) | 170 to 172
63 | C1=C(c2ccc3ccccc3c2)CCN(Cc2c[nH]c3ncccc23)C1 | 223 to 225
64 | CCOC(=O)CCCn1cc(-c2cccnc2)c2cc([N+](=O)[O-])ccc21 | 76 to 78
65 | C[Si](C)(C)NS(=O)(=O)c1ccccc1 | 62 to 63
66 | CC1(CCS)C(=O)N2CCCC(C(=O)O)N2C1=O (configuration not stated) | 165 to 168
67 | O=C1CCc2c1cccc2C(F)(F)F | 32 to 36
68 | Cc1c(C)c2c(c([N+](=O)[O-])c1C)OC(C)(C)C2 | 100 to 101

Continued, values first:

Row | melting point [°C] | Structure (SMILES)
69 | 128 to 130 | COC(=O)c1cccc(-c2cc(CCNC(=O)C3CCC3)c3cc(OC)ccc3c2)c1
70 | 111 to 112 | CCOC(=O)/C=C/c1cn(Cc2ccc(OCc3ccccc3)cc2)cc1-c1ccccc1
71 | 171 to 173 | Cc1ccccc1-c1ccc(C(=O)N2Cc3ccc(C(=O)NCc4cccc(C(F)(F)F)c4)n3Cc3ccccc32)cc1C
72 | 128 to 130 | CCN(CC)C(=O)Oc1cc(CN/C=C2\C(=O)NC(=O)c3ccc(I)cc32)ccc1OC
73 | 125 to 126 | Cc1nn(-c2ccc(C(F)(F)F)cn2)cc1CCCOc1cc(CCC(=O)O)n(-c2ccccc2)n1
74 | 348 to 353 | O=C(Oc1n[nH]c(=O)c2nc3cc(Cl)ccc3c(O)c12)c1ccccc1
75 | 224 | COc1cccc(O)c1-c1ccc(C[C@H](NC(=O)c2c(Cl)cccc2Cl)C(=O)O)cc1
76 | 114 to 116 | CCOC(=O)c1ccccc1CN1C(=O)C(CCO)Oc2ccccc21 (configuration not stated)
77 | 147 to 149 | O=c1cc(-c2ccc(OCc3ccccc3)c(OCc3ccccc3)c2)oc2ccc(OCC3CO3)cc12 (configuration not stated)
78 | 50 | CON(C)C(=O)NC(CS)Cc1ccccc1 (single isomer, unassigned; (+))
79 | 155 to 157 | COCc1c(C(=O)OC(C)C)ncc2c1c1c(OCc3ccccc3)cccc1n2CC(=O)N(C)Cc1ccccc1
80 | 159 to 161 | O=C(O)c1cc(=O)c2cccc(/C=C/c3ccc(OCCCCc4ccccc4)cc3)c2o1
81 | 196 to 198 | CCOC(=O)COc1cccc2c1oc1sc(Nc3ccccc3)nc12
82 | 134 to 142 | O=C(Oc1ccccc1)N1CCC2(CC1)SC(c1cccc(F)c1)c1ccccc12 (configuration not stated)
83 | 259 to 261 | Cc1ccc(C(=O)C2=C(O)C(=O)N(c3ccc(C)cn3)C2c2ccc(C(C)C)cc2)cc1 (configuration not stated)
84 | 156 to 158 | CCOC(=O)c1ccc(NC(=O)c2ccc(OCCCCc3ccccc3)cc2)c(O)c1
85 | 162 to 164 | CCOC(=O)C1=C(CN2C(=O)c3ccccc3C2=O)NC(CN2C(=O)c3ccccc3C2=O)=C(C(=O)OCC)C1c1ccccc1Cl

Row | melting point [°C] | Structure (SMILES)
86 | 125 to 132 | CCOC(=O)c1cccc(C(=O)c2cccnc2-c2ccc(S(C)(=O)=O)cc2)c1
87 | 207 to 208 | COc1ccn2nc(-c3ccccc3)c(-c3ccc(=O)n(C4CCOC4)n3)c2c1 (configuration not stated)
88 | 186 to 190 | COc1cn(-c2ccc(-n3cccn3)cc2F)nc(-c2ccnn2-c2cccc(Cl)c2)c1=O
89 | 90 to 95 | COC(=O)C1CN(C(=O)[C@H](CO)NC(=O)OCc2ccccc2)C1
90 | 129 | CCO[C@@H](Cc1ccc2oc(Cc3nc(-c4ccccc4)oc3C)cc2c1)C(=O)O
91 | 122 to 125 | Cc1ccn(-c2ccc(C(=O)N3Cc4cccnc4Nc4ccccc43)c(F)c2)n1
92 | 132 | CCOCCOc1ccc(C(=O)Nc2ccc3cc(CN4CCCC4)cnc3c2C)c(F)c1
93 | 86 to 102 | CCOC(Cc1ccc(OCCN2c3ccccc3Oc3ccccc32)cc1)C(=O)O (configuration not stated)
94 | 56 to 57 | CCOC(=O)[C@H](CCc1ccccc1)N[C@@H](C)C(=O)N1C(=O)N(Cc2ccccc2)C[C@H]1C(=O)O
95 | 201 to 203 | CC(C)N(Cc1ccc(COc2cccc3c2CN(C2CCC(=O)NC2=O)C3=O)cc1)C(C)C (configuration not stated)
96 | 90 to 90.5 | COC(=O)c1ccc(C(=O)C=C(c2cc(Cl)cc(C(F)(F)F)c2)C(F)(F)F)c2ccccc12
97 | 216 | CCC(=O)Oc1cccc2c(-c3ccccc3)c3cccc(OC(=O)CC)c3c(OC(=O)CC)c12
98 | 152 to 155 | CC(C)c1nc(COCc2ccccc2)n(Cc2ccccc2)c1Sc1cccc([N+](=O)[O-])c1
99 | 178 to 180 | CCCCCCCNC(=O)Nc1ccccc1C(=O)Nc1ccc(N(C)C)cc1
100 | 174 to 176 | OCC(O)COc1ccc(NNC(c2ccccc2)(c2ccccc2)c2ccccc2)nn1 (racemic)
101 | 258 to 260 | CC(C)(c1ccc(Oc2cccc3c2C(=O)NC3=O)cc1)c1ccc(Oc2cccc3c2C(=O)NC3=O)cc1
102 | 95 | CCOC(=O)C=Cc1ccc(OCc2ccccn2)cc1
